Measured values: patent US20170305857A1, “N-ACYLPIPERIDINE ETHER TROPOMYOSIN-RELATED KINASE INHIBITORS” (Pfizer Limited, priority 2014, published 2017)

Molecular target: T1, recombinant His-tagged cytoplasmic domains of TRKA receptor (NTRK1, PV3144, aa 441-796) (Homo sapiens, UniProt P04629)
T1 construct: aa 441-796; His; purchased Invitrogen PV3144
Experiment: Isolated TRK enzyme assay (HTRF KinEASE-TK, PV3144 TrkA enzyme assay)
Type: biochemical
Settings: 4 nM enzyme, 40 uM ATP, 35 min, arithmetic mean where more than one reading
Summary of the method: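 Enzyme and ATP were preincubated with compound for 20 min at room temperature in buffer with 10 mM MgCl and 2 mM DTT. TK-substrate-Biotin was then added (1 uM final) and the reaction run for an enzyme-specific optimized time. Phosphorylation was read by HTRF, and IC50 values came from sigmoid fits of percent inhibition normalized to plate controls, averaged over replicate readings.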

T1 sequence (P04629 441-796): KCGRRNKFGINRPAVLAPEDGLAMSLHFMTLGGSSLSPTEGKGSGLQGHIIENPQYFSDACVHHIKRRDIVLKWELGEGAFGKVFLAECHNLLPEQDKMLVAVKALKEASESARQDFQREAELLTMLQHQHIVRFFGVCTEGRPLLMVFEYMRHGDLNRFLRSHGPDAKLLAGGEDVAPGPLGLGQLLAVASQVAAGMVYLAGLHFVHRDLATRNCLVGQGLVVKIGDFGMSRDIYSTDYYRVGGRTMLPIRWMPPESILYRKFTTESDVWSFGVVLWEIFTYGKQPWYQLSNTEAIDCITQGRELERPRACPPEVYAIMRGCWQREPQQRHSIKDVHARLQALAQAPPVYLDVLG

Row | Compound | IC50 [nM]
1 | Cn1cc(-c2cnc(O[C@H]3CCN(C(=O)Cc4ccc(OC(F)(F)F)cc4)C[C@H]3F)c(C(N)=O)c2)cn1 [Example 4, 2-{[(3R,4S)-3-fluoro-1-{[4-(trifluoromethoxy)phenyl]acetyl}piperidin-4-yl]oxy}-5-(1-methyl-1H-pyrazol-4-yl)pyridine-3-carboxamide] | 1.2
2 | Cn1cnc(-c2ccc(O[C@H]3CCN(C(=O)Cc4ccc(OC5CC5)cc4)C[C@H]3F)c(C(N)=O)c2)c1 (racemic) [Example 40, 1:1 Cis-racemic 2-{[1-{[4-(cyclopropyloxy)phenyl]acetyl}-3-fluoropiperidin-4-yl]oxy}-5-(1-methyl-1H-imidazol-4-yl)benzamide] | 1
3 | Cc1nc(-c2ccc(OC3CCN(C(=O)Cc4ccc(OC(F)(F)F)cc4)CC3)c(C(N)=O)c2)c[nH]1 [Example 146, 5-(2-methyl-1H-imidazol-4-yl)-2-[(1-{[4-(trifluoromethoxy)phenyl]acetyl}piperidin-4-yl)oxy]benzamide] | 11.6
4 | Cn1cnc(-c2ccc(O[C@H]3[C@@H]4CO[C@H]3CN(C(=O)Cc3ccc(OC(F)(F)F)cc3)C4)c(C(N)=O)c2)c1 [Example 158, 5-(1-methyl-1H-imidazol-4-yl)-2-{[(1S,5S,8S)-3-{[4-(trifluoromethoxy)phenyl]acetyl}-6-oxa-3-azabicyclo[3.2.1]oct-8-yl]oxy}benzamide] | 18.4
5 | CC(N)c1ccc(-c2cnc(OC3CCN(C(=O)Cc4ccc(OC(F)(F)F)cc4)CC3)c(C(N)=O)c2)cc1 (stereo in doubt) [Example 96, 5-{4-[(1S)-1-aminoethyl]phenyl}-2-[(1-{[4-(trifluoromethoxy)phenyl]acetyl}piperidin-4-yl)oxy]pyridine-3-carboxamide] | 5
6 | NC(=O)c1cc(-c2cn(CCO)nn2)ccc1OC1CCN(C(=O)Cc2ccc(OC(F)(F)F)cc2)CC1 [Example 174, 5-[1-(2-hydroxyethyl)-1H-1,2,3-triazol-4-yl]-2-[(1-{[4-(trifluoromethoxy)phenyl]acetyl}piperidin-4-yl)oxy]benzamide] | 19.1
7 | Cn1cnc(-c2ccc(O[C@H]3CCN(C(=O)Cc4ccc(OC(F)(F)F)cc4)C[C@@H]3F)c(C(N)=O)c2)c1 (single isomer, unassigned) [Example 8] | 1.5
8 | NC(=O)c1cc(-c2ccc3c(c2)CNS3(=O)=O)ccc1OC1CCN(C(=O)Cc2ccc(OC(F)(F)F)cc2)CC1 [Example 63, 5-(1,1-dioxido-2,3-dihydro-1,2-benzothiazol-5-yl)-2-[(1-{[4-(trifluoromethoxy)phenyl]acetyl}piperidin-4-yl)oxy]benzamide] | 6.7
9 | CS(=O)(=O)Cn1cc(-c2cc(C(N)=O)c(O[C@@H]3CCN(C(=O)Cc4ccc(OC(F)(F)F)cc4)C[C@@H]3F)cn2)cn1 [Example 36, 5-{[(3S,4R)-3-fluoro-1-{[4-(trifluoromethoxy)phenyl]acetyl}piperidin-4-yl]oxy}-2-{1-[(methylsulfonyl)methyl]-1H-pyrazol-4-yl}pyridine-4-carboxamide] | 3.4
10 | Cn1cc(-c2ccc(OC3CCN(C(=O)Cc4ccc(C(C)(C)C)nc4)CC3)c(C(N)=O)c2)cn1 [Example 18, 2-({1-[(6-tert-butylpyridin-3-yl)acetyl]piperidin-4-yl}oxy)-5-(1-methyl-1H-pyrazol-4-yl)benzamide] | 8.9
11 | Cc1nc[nH]c1-c1ccc(OC2CCN(C(=O)Cc3ccc(OC(F)(F)F)cc3)CC2)c(C(N)=O)c1 [Example 99, 5-(4-methyl-1H-imidazol-5-yl)-2-[(1-{[4-(trifluoromethoxy)phenyl]acetyl}piperidin-4-yl)oxy]benzamide] | 7.7
12 | NC(=O)c1cc(-c2cn[nH]c2)ccc1O[C@H]1CCN(C(=O)Cc2ccc(OC(F)(F)F)cc2)C[C@H]1F [Example 5, 2-{[(3R,4S)-3-fluoro-1-{[4-(trifluoromethoxy)phenyl]acetyl}piperidin-4-yl]oxy}-5-(1H-pyrazol-4-yl)benzamide] | 0.9
13 | NC(=O)c1cc(-c2c[nH]cn2)cnc1O[C@H]1CCN(C(=O)Cc2ccc(OC(F)(F)F)cc2)C[C@H]1F [Example 141, 2-{[(3R,4S)-3-fluoro-1-{[4-(trifluoromethoxy)phenyl]acetyl}piperidin-4-yl]oxy}-5-(1H-imidazol-4-yl)pyridine-3-carboxamide] | 1.4
14 | CC(C)c1ccc(CC(=O)N2CCC(Oc3ccc(-c4cnn(C)c4)cc3C(N)=O)CC2)cc1 [Example 109, 5-(1-methyl-1H-pyrazol-4-yl)-2-[(1-{[4-(propan-2-yl)phenyl]acetyl}piperidin-4-yl)oxy]benzamide] | 7.1
15 | NC(=O)c1cc(-c2cccc(CO)c2)ccc1OC1CCN(C(=O)Cc2ccc(OC(F)(F)F)cc2)CC1 [Example 106, 3′-(hydroxymethyl)-4-[(1-{[4-(trifluoromethoxy)phenyl]acetyl}piperidin-4-yl)oxy]biphenyl-3-carboxamide] | 5.3

The next lines start with the values.

Row | IC50 [nM] | Compound
16 | 17.1 | Cn1cncc1-c1ccc(OC2CCN(C(=O)Cc3ccc(OC(F)(F)F)cc3)CC2)c(C(N)=O)c1 [Example 145, 5-(1-methyl-1H-imidazol-5-yl)-2-[(1-{[4-(trifluoromethoxy)phenyl]acetyl}piperidin-4-yl)oxy]benzamide]
17 | 2.6 | NC(=O)c1cc(-c2cnn(C3COC3)c2)ccc1OC1CCN(C(=O)Cc2ccc(OC(F)(F)F)cc2)CC1 [Example 57, 5-[1-(oxetan-3-yl)-1H-pyrazol-4-yl]-2-[(1-{[4-(trifluoromethoxy)phenyl]acetyl}piperidin-4-yl)oxy]benzamide]
18 | 5.5 | NC(=O)c1cc(-c2c[nH]cn2)ccc1OC1CCN(C(=O)Cc2ccc(OC(F)(F)F)cc2)CC1 [Example 127, 5-(1H-imidazol-4-yl)-2-[(1-{[4-(trifluoromethoxy)phenyl]acetyl}piperidin-4-yl)oxy]benzamide]
19 | 5.1 | C[C@H](CO)n1cc(-c2ccc(OC3CCN(C(=O)Cc4ccc(OC(F)(F)F)cc4)CC3)c(C(N)=O)c2)cn1 [Example 132]
20 | 12.3 | NC(=O)c1cc(-c2cc[nH]n2)ccc1OC1CCN(C(=O)Cc2ccc(OC(F)(F)F)cc2)CC1 [Example 177, 5-(1H-pyrazol-3-yl)-2-[(1-{[4-(trifluoromethoxy)phenyl]acetyl}piperidin-4-yl)oxy]benzamide]
21 | 4.4 | NC(=O)c1cc(-c2cnn(C[C@@H](O)CO)c2)ccc1OC1CCN(C(=O)Cc2ccc(OC(F)(F)F)cc2)CC1 [Example 122]
22 | 7 | NCCn1cc(-c2ccc(OC3CCN(C(=O)Cc4ccc(OC(F)(F)F)cc4)CC3)c(C(N)=O)c2)cn1 [Example 138, 5-[1-(2-aminoethyl)-1H-pyrazol-4-yl]-2-[(1-{[4-(trifluoromethoxy)phenyl]acetyl}piperidin-4-yl)oxy]benzamide]
23 | 0.9 | Cn1cc(-c2ccc(O[C@H]3CCN(C(=O)Cc4ccc(OC(F)(F)F)cc4)C[C@H]3F)c(C(N)=O)c2)cn1 [Example 75, 2-{[(3R,4S)-3-fluoro-1-{[4-{trifluoromethoxy)phenyl]acetyl}piperidin-4-yl]oxy}-5-(1-methyl-1H-pyrazol-4-yl)benzamide]
24 | 2.2 | NC(=O)c1cc(-c2cnn(C3CS(=O)(=O)C3)c2)ccc1OC1CCN(C(=O)Cc2ccc(OC(F)(F)F)cc2)CC1 [Example 13, 5-[1-(1,1-dioxidothietan-3-yl)-1H-pyrazol-4-yl]-2-[(1-{[4-(trifluoromethoxy)phenyl]acetyl}piperidin-4-yl)oxy]benzamide]
25 | 12.6 | Cn1ccc(-c2ccc(OC3CCN(C(=O)Cc4ccc(OC(F)(F)F)cc4)CC3)c(C(N)=O)c2)n1 [Example 148, 5-(1-methyl-1H-pyrazol-3-yl)-2-[(1-{[4-(trifluoromethoxy)phenyl]acetyl}piperidin-4-yl)oxy]benzamide]
26 | 2.6 | C[C@@H](O)Cn1cc(-c2ccc(OC3CCN(C(=O)Cc4ccc(OC(F)(F)F)cc4)CC3)c(C(N)=O)c2)cn1 [Example 133]
